Where “and” joins values, the source holds several entries; their conditions need not be identical. Equal entries are not always repeated.
Experiments:
L929 cells = experiment: TZ-induced L929 cell necroptosis model (CCK8); assay type: cell-based; settings: Mus musculus
Experimental: (§1) Cell necroptosis protection assays were performed in 96-well cell culture plates. Cells were plated in each well and cultured at 37 °C overnight. […] The cell survival rate was determined using a CCK8 cell viability assay kit and CLARIOstar (v5.61). […] All experiments were performed at least two times, and each EC50 value was expressed as mean ± standard deviation (SD).

J774A.1 cells = experiment: TSZ-induced J774A.1 cell necroptosis model (CCK8); assay type: cell-based; settings: Mus musculus, J774.A1
Experimental: as §1

[1] = test system: RIPK1 knockout HT29 cells; experiment: TSZ treatment of RIPK1 knockout HT29 cells (CCK8); assay type: cell-based; settings: Homo sapiens, HT-29, read-out: Cell Viability (%) Average
Experimental: as §1
The lentiCRISPRv2 vector targeting RIPK1 (sgRNA, 5’- […]-3’) was constructed by the Azenta company. HEK 293 T cells were transfected with lentiCRISPRv2 targeting RIPK1 and empty vector using Hieff Trans^TM Liposomal Transfection Reagent (Yeasen), respectively. […] The concentrated viruses were added to HT29 cells along with 8 μg/mL of polybrene (Yeasen) to enhance transfection efficiency. The infection assay was repeated in the next day under the same conditions. Finally, HT29 cells were screened with 3 μg/mL puromycin. Western blot analysis was used to confirm the RIPK1 deletion.

DSS-induced IBD = DSS-induced IBD mouse model: body weight; assay type: in vivo, C57BL/6 female mice; settings: for Body Weight (%): Figure 9a
Experimental: (§2) DSS (3% w/v) was administered in drinking water ad libitum for 7 d (from day 0 to day 7). DSS solution was replaced three times on day 2, day 4, and day 6. […] Three mice in each group were killed at random on day 7, and distal colon tissues were collected for analysis. The mice weight and survival rate were recorded daily.

IL-1β = experiment: DSS-induced IBD mouse model: IL-1β in cultured colon supernatant (ELISA); assay type: in vivo, C57BL/6 female mice
Experimental: as §2
In the TNFα-induced SIRS model, at 6 h after TNFα injection, four mice in each group were killed at random, and the serums were collected, the serum concentrations of IL-1β and IL-6 were measured using ELISA kits (Neobioscience Technology) according to manufacturer’s instructions. […] The supernatant was collected by sequential centrifugation at 500 × g for 10 min and 3000 × g for 10 min. The concentrations of cytokines TNFα, IL-6, and IL-1β were measured using ELISA kits (Neobioscience Technology).

[2] = test system: kinases that have an inhibitory rate larger than 50%; experiment: IC50 against kinases with inhibitory rate larger than 50%; assay type: biochemical, human; settings: all except MLK3; read-out: IC50 against all other kinases followed up
Experimental: (§3) In vitro kinase activity assays were conducted through the Kinase Profiling Services provided by Eurofins (Eurofins, France). The protocol for the RIPK1 assay is briefly described as follows (Protocols for other kinases are very similar and can be found in http://www.eurofins.com/pharmadiscovery). RIPK1 kinase was incubated with the test compound in assay buffer containing 8 mM MOPS (pH 7.0), 0.2 mM EDTA, 250 μM […], 10 mM magnesium acetate, and 10 μM [γ-33P]-ATP for 15 min at room temperature. The reaction was initiated by the addition of the Mg/ATP mixture. After incubation for 40 min at room temperature, and the reaction was stopped by the addition of 3% phosphoric acid. A 10 μL portion of the reaction mixture was then spotted onto a P30 filter mat and washed four times for 4 min in 0.425% phosphoric acid and once in methanol prior to drying and scintillation counting.

MLK1 = MLK1 (Homo sapiens, UniProt P80192); experiment: Kinase assay (Eurofins); assay type: biochemical
Sequence of MLK1 (P80192 whole entry): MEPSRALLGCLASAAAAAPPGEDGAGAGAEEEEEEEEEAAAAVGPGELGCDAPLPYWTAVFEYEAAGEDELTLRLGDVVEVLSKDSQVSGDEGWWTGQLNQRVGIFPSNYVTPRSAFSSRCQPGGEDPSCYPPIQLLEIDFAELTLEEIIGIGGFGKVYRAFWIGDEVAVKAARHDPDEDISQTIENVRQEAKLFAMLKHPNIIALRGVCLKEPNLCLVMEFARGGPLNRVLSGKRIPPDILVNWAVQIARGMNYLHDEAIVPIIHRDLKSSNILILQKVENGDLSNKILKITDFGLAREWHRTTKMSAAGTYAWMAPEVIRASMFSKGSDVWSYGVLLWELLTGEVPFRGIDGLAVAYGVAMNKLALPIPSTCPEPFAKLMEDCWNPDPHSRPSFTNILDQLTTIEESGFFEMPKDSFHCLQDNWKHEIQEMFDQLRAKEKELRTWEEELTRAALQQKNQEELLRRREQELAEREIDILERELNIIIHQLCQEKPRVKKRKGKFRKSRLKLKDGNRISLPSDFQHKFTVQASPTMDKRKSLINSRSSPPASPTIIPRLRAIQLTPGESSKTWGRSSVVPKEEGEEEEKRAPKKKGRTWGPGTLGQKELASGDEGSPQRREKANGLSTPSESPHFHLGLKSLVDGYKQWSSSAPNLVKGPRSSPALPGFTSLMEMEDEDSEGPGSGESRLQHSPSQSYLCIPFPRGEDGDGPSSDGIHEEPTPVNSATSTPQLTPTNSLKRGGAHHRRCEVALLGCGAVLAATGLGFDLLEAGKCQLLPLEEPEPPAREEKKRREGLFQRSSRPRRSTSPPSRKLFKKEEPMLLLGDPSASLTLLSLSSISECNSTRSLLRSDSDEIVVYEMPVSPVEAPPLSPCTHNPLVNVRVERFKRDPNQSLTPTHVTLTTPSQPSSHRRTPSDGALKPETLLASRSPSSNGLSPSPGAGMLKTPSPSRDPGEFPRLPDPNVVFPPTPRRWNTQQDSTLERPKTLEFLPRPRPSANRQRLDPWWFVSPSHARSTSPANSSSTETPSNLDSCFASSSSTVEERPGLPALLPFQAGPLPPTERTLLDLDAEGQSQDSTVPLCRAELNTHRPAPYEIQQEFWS
Experimental: as §3

MLK2 = MLK2 (Homo sapiens, UniProt Q02779); experiment: Kinase assay (Eurofins); assay type: biochemical
Sequence of MLK2 (Q02779 whole entry): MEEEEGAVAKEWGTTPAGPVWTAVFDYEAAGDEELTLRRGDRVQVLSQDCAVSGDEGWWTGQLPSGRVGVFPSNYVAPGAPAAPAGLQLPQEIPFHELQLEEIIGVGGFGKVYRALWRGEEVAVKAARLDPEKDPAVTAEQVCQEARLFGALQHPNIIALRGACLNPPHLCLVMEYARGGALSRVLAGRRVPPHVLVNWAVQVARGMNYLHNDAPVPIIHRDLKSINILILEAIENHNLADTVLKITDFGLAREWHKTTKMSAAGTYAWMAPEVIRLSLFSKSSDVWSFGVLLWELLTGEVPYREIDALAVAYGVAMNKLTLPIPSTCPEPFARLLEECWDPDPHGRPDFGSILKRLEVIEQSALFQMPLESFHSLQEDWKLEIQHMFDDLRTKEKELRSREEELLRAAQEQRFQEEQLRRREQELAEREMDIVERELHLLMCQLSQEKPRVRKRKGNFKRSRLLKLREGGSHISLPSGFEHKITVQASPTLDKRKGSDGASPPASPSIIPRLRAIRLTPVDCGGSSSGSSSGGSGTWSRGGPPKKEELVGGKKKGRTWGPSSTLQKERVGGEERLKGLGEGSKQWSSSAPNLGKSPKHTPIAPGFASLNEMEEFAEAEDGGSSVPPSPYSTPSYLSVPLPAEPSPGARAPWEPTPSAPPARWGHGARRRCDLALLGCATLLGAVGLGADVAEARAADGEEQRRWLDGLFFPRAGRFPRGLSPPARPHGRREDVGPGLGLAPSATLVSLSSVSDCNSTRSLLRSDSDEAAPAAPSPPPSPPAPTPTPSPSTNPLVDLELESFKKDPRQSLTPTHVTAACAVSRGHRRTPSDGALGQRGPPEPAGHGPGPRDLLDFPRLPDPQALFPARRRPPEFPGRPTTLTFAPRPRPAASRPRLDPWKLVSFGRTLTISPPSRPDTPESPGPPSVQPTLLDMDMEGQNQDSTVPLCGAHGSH
Experimental: as §3

MLK3 = MLK3 (Homo sapiens, UniProt Q16584); experiment: Kinase assay (Eurofins); assay type: biochemical
Sequence of MLK3 (Q16584 whole entry): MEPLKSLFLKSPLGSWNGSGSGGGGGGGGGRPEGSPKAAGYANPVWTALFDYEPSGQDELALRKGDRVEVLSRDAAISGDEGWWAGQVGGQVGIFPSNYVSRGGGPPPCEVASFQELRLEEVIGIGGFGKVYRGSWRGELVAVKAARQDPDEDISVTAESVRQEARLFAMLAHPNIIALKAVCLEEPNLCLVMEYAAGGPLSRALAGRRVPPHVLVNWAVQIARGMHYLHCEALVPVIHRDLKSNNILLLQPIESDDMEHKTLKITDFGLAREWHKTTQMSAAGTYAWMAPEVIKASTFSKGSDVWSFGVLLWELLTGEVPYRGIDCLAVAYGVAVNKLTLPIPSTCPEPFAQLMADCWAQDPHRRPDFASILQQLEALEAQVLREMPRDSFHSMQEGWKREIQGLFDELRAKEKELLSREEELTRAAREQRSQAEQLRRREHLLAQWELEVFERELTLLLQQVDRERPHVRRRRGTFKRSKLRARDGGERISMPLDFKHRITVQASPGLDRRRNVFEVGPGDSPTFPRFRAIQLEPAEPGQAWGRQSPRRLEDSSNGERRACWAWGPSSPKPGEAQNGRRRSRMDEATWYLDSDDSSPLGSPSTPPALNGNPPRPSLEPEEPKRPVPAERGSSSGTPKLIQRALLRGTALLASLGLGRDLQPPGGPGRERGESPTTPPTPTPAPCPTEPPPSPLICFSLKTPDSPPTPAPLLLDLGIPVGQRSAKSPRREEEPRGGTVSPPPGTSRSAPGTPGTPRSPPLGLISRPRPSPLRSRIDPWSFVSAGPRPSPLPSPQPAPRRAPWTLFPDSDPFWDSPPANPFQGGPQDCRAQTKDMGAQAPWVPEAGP
Experimental: as §3

RIPK2 = RIPK2 (Homo sapiens, UniProt O43353); experiment: Kinase assay (Eurofins); assay type: biochemical
Sequence of RIPK2 (O43353 whole entry): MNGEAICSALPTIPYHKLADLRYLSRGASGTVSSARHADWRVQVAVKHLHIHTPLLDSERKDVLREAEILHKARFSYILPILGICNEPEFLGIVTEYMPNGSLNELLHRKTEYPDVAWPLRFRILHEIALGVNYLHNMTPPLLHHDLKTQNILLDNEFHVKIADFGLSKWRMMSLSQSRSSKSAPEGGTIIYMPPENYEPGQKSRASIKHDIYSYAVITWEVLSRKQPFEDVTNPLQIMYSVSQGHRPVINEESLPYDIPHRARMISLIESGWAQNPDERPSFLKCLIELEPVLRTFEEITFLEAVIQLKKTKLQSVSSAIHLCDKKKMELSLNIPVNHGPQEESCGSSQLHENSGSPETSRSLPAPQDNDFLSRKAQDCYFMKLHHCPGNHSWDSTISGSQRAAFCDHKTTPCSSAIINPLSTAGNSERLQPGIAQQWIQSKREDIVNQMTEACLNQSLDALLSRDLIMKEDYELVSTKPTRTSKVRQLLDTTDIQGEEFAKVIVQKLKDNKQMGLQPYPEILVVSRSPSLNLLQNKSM
Experimental: as §3

[3] = Maximum tolerated dose study in mice

## CC(C)C(=O)Nc1nc2cc(-c3ccc4c(c3)c(C(=O)NC(C)c3ccccc3)cn4C)ccn2n1 (stereo not shown) [RI-962]
L929 cells; L929, 0.000056 μM
  viability at 56 pM: 19.1%
L929 cells; L929, 0.000169 μM
  viability at 0.000169 µM: 22.9%
L929 cells; L929, 0.000508 μM
  viability at 0.000508 µM: 24.8%
L929 cells; L929, 0.001524 μM
  viability at 0.001524 µM: 35.2%
L929 cells; L929, 0.004572 μM
  viability at 0.004572 µM: 62.2%
L929 cells; L929, 0.013717 μM
  viability at 0.013717 µM: 83.1%
L929 cells; L929, 0.041152 μM
  viability at 0.041152 µM: 89.4%
L929 cells; L929, 0.123457 μM
  viability at 0.123457 µM: 105%
L929 cells; L929, 0.370370 μM
  viability at 0.37037 µM: 98.5%
L929 cells; L929, 1.111111 μM
  viability at 1.11111 µM: 103%
L929 cells; L929, 3.333333 μM
  viability at 3.33333 µM: 99.1%
L929 cells; L929, 10.000000 μM
  viability at 10 µM: 91.6%
L929 cells; L929 treated with TZ, 24 h
  EC50: 0.0042 µM
J774A.1 cells; 0.000056 μM
  viability at 56 pM: 1.06%
J774A.1 cells; 0.000169 μM
  viability at 0.000169 µM: 1.51%
J774A.1 cells; 0.000508 μM
  viability at 0.000508 µM: 3.42%
J774A.1 cells; 0.001524 μM
  viability at 0.001524 µM: 11.4%
J774A.1 cells; 0.004572 μM
  viability at 0.004572 µM: 24.7%
J774A.1 cells; 0.013717 μM
  viability at 0.013717 µM: 48.7%
J774A.1 cells; 0.041152 μM
  viability at 0.041152 µM: 85.3%
J774A.1 cells; 0.123457 μM
  viability at 0.123457 µM: 88.9%
J774A.1 cells; 0.370370 μM
  viability at 0.37037 µM: 93%
J774A.1 cells; 1.111111 μM
  viability at 1.11111 µM: 98.3%
J774A.1 cells; 3.333333 μM
  viability at 3.33333 µM: 91.5%
J774A.1 cells; J774A.1 treated with TSZ, 24 h
  EC50: 0.0114 µM
[1]; 0.000169 μM + TSZ
  viability at 0.000169 µM: 89.4%
[1]; 0.000508 μM + TSZ
  viability at 0.000508 µM: 103%
[1]; 0.001524 μM + TSZ
  viability at 0.001524 µM: 87.5%
[1]; 0.004572 μM + TSZ
  viability at 0.004572 µM: 87.3%
[1]; 0.013717 μM + TSZ
  viability at 0.013717 µM: 90.8%
[1]; 0.041152 μM + TSZ
  viability at 0.041152 µM: 90.1%
[1]; 0.123457 μM + TSZ
  viability at 0.123457 µM: 94.4%
[1]; 0.370370 μM + TSZ
  viability at 0.37037 µM: 104%
[1]; 1.111111 μM + TSZ
  viability at 1.11111 µM: 97.9%
DSS-induced IBD; 40 mg/kg i.p. once a day
  loss of body weight: strongly ameliorated this loss of body weight
DSS-induced IBD; day 0
  Body Weight (%): 100%
DSS-induced IBD; day 1
  Body Weight (%): 97.11%
DSS-induced IBD; day 2
  Body Weight (%): 98.41%
DSS-induced IBD; day 3
  Body Weight (%): 102.3%
DSS-induced IBD; day 4
  Body Weight (%): 103.1%
DSS-induced IBD; day 5
  Body Weight (%): 104.6%
DSS-induced IBD; day 6
  Body Weight (%): 103.5%
DSS-induced IBD; day 7
  Body Weight (%): 103.5%
DSS-induced IBD; day 8
  Body Weight (%): 99.79%
DSS-induced IBD; day 9
  Body Weight (%): 98.12%
DSS-induced IBD; day 10
  Body Weight (%): 98.15%
DSS-induced IBD; day 11
  Body Weight (%): 100.8%
DSS-induced IBD; day 12
  Body Weight (%): 100.7%
DSS-induced IBD; day 13
  Body Weight (%): 102.5%
DSS-induced IBD; day 14
  Body Weight (%): 104.7%
IL-1β; 40 mg/kg i.p., day 7
  content of IL-1β in cultured colonic tissue supernatants: substantially reduced
IL-1β; Figure 9h, individual replicates 1-3
  IL-1β: 46.88 pg/mL and 42.98 pg/mL and 47.29 pg/mL
[2]
  IC50: > 10 µM
MLK1; 10 µM, read-out: Activity (%), MLK1(h)
  activity at 10 µM: 36%
MLK1; MLK1
  IC50: > 10 µM
MLK2; 10 µM, read-out: Activity (%), MLK2(h)
  activity at 10 µM: 29%
MLK2; MLK2
  IC50: > 10 µM
MLK3
  folds less potent against MLK3 than against RIPK1: 107 folds
MLK3; 10 µM, read-out: Activity (%), MLK3(h)
  activity at 10 µM: 20%
MLK3; MLK3
  IC50: 3.75 µM
RIPK2; 10 µM, read-out: Activity (%), RIPK2(h)
  activity at 10 µM: 79%
RIPK2; RIPK2
  IC50: > 10 µM
[3]; 250mg/kg
  impact on mouse organs (H&E staining): no obvious impact on different mouse organs
[3]; doses up to 250 mg/kg
  tolerability observations: no observed weight loss and no other side effects

— article PMC9653409, “Generative deep learning enables the discovery of a potent and selective RIPK1 inhibitor” (Nature Communications, 2022)
